Experimental data from patent publication US20180020708A1, “GLUCOSYRINGIC ACID ANALOGS AS SWEETNESS PROFILE MODIFIERS” (PepsiCo, Inc., priority 2016, published 2018).

What was measured:
tasters = experiment: Human tasting of sweet/flavor modifying ingredient in HFCS solution versus HFCS control; assay type: in vivo
Protocol: For testing the material as a sweet/flavor modifying ingredient, two samples were prepared: a 4° Brix high-fructose corn syrup (HFCS) control solution and a 4° Brix HFCS solution with a known concentration of test ingredient.
4° Brix HFCS control solution was prepared by adding 50.89 grams of 78.60° Brix HFCS to 1000 g phosphoric acid base which was prepared by adding phosphoric acid dropwise into 1 L of Aquafina Water until pH 3.1 was obtained. pH was measured using a METTLER TOLEDO pH meter.
If any cloudiness persisted, the sample solution was passed through a paper filter. For some low soluble compounds, Branson 2800 Ultra Sonic Bath was used to dissolve the material. Solubility was confirmed by shining a laser pointer through the solution. If no diffraction was observed then it was assumed that the material was soluble.
For each test, 12-16 tasters were presented with these two (2) numbered samples and asked to note the sweet quality differences between the two samples. Tasters were also asked to comment on sweetness onset, sweetness linger, overall sugarlike sweetness and other qualities such as bitter taste, metallic note, astringency, cooling sensation, any offnotes and any associated flavors. Tasters were also asked to assess sample odor differences and provide any descriptions.
Tasters were asked to not to eat at least 1 hour before tasting and rinse with Aquafina water at least 5 times between tasting all samples.
Compound 5 was added at 35 ppm to 4 Brix HFCS in phosphoric acid (as described above). This solution was compared with 4 Brix HFCS in phosphoric acid.

human tasting = experiment: Human tasting of GSA with high potency sweeteners such as rebaudioside A; assay type: in vivo; settings: pure form
[1] = 35 ppm in 4 Brix HFCS in phosphoric acid (pH 3.1) vs 4 Brix HFCS control

COc1cc(C(=O)O)cc(OC)c1O[C@@H]1O[C@H](CO)[C@@H](O)[C@H](O)[C@H]1O [Compound 5, Syringic acid 4-O-β-D-glucoside]
overall sugarlike sweetness reported by tasters (tasters; [1]): more sugar-like | sweetness onset reported by tasters (tasters; [1]): earlier onset | sweet quality difference reported by tasters (tasters; 35 ppm in 4 Brix HFCS in phosphoric acid (pH 3.1) vs 4 Brix HFCS control, majority of 12-16 tasters noted a difference): rounder sweetness | overall sweetness of nutritive sweetener sweetened beverages (tasters; pure form, human tasting, nutritive sweetener e.g. high-fructose corn syrup (HFCS)): effective in increasing the overall sweetness | sweet quality of sweetened beverages (tasters; pure form, human tasting, sweetened beverages): improving the sweet quality | bitter, metallic and licorice off-notes of high potency sweeteners (human tasting; e.g. 300 ppm solution of Rebaudioside A in phosphate buffer): decreasing bitter, metallic and licorice off-notes | sweetness time-of-onset for high potency sweeteners (human tasting; high potency sweeteners such as rebaudioside A): decreasing the sweetness time-of-onset
